Reference: patent US6255497A, “Method for the inhibition of ALDH-I useful in the treatment of alcohol dependence or alcohol abuse” (priority 1998, dated 2001)
Values after ≈ are worked out from the molar mass of the structure shown. Read-outs that look alike come from different tables or passages of the source.

Assays:
ALDH-II [1] = biological target: T1, ALDH-II (Homo sapiens, UniProt P00352); assay: ALDH-II inhibition by structurally related compounds, acetaldehyde as substrate; format: biochemical; design: A liver sample (50 g wet weight) with the usual Caucasian ALDH phenotype (both ALDH-I and ALDH-II present); from tissue; host or cells: human liver (autopsy), purified by CM-52, AMP-agarose and DEAE HPLC
T1 sequence (P00352 1-501): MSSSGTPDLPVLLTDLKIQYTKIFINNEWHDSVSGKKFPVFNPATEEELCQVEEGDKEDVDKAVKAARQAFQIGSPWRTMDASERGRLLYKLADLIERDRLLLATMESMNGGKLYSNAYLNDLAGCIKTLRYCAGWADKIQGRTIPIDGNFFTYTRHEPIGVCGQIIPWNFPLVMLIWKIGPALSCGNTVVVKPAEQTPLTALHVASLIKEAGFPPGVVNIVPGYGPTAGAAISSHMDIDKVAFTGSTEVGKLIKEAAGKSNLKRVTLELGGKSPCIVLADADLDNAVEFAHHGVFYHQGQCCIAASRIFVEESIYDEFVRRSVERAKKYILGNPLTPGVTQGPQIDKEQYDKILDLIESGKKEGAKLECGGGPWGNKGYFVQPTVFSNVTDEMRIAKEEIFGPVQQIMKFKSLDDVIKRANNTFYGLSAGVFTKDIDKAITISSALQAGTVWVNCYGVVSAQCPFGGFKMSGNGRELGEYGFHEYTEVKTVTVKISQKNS
Procedure: (§1) *ALDH activities were assayed at 25° C. in 0.1 M sodium
(§2) pyrophosphate buffer pH 9.5 containins 0.15 M KCl, 1 mM NAD^+, various
(§3) concentrations of inhibitors and 5 and 200 μM acetaldehyde for ALDH-I
(§4) and ALDH-II, respectively.
(§5) For the study of the inhibition of ALDH-I by structurally related compounds to generate the data shown in Tables IV and V, each individual compound was dissolved at different concentrations in methanol and was added to the assay medium as 10 μL aliquots. For controls, 10 […] of methanol was added to the assay medium. In a standard ALDH-I assay, the assay medium contains 0.1 M sodium pyrophosphate pH 9.5, 0.15 M KCl, 1 mM NAD^+, 1% methanol, 5 μM acetaldehyde, 5-10 nM ALDH-I and various concentrations of inhibitor. The enzyme reaction rates were measured by monitoring the production of NADH at 340 nm (ε=6.22 mM^-1 cm^-1) with a Varian Cary 219 spectrophotometer thermostated at 25° C. (Fong et al., 1989, supra). The inhibition of ALDH-I by the inhibitors was calculated as: [formula]
(§6) where Vo is the enzyme reaction rate measured in the absence of inhibitor, and where Vi is the enzyme reaction rate measured in the presence of inhibitor. […] IC50 values are related to the underlying Ki values.

ALDH-I [2] = biological target: T2, ALDH-I (Homo sapiens, UniProt P05091); assay: ALDH-I inhibition by structurally related compounds, acetaldehyde as substrate; format: biochemical; design: A liver sample (50 g wet weight) with the usual Caucasian ALDH phenotype (both ALDH-I and ALDH-II present); from tissue; host or cells: human liver (autopsy), purified by CM-52, AMP-agarose and DEAE HPLC
T2 sequence (P05091 18-517): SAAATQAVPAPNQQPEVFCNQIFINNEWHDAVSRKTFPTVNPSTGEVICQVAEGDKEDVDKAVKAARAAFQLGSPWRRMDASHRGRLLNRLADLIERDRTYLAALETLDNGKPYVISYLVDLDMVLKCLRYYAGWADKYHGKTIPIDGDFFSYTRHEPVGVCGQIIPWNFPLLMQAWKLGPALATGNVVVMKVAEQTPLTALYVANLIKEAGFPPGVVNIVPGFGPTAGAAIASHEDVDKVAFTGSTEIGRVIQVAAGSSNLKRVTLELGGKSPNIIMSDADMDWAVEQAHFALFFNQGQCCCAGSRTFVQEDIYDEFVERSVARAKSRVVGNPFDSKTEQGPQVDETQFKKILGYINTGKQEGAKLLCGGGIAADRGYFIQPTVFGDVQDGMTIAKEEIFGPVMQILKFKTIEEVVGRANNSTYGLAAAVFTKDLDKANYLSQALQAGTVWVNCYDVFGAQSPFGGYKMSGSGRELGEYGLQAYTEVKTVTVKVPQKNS
Procedure: as §1, §2, §3, §4
For controls, 10 .eta.L of methanol was added to the assay medium. In a standard ALDH-I assay, the assay medium contains 0.1 M sodium pyrophosphate pH 9.5, 0.15 M KCl, 1 mM NAD^+, 1% methanol, 5 μM acetaldehyde, 5-10 nM ALDH-I and various concentrations of inhibitor. […] (Fong et al., 1989, supra). The inhibition of ALDH-I by the inhibitors was calculated as: [formula]
as §6

ALDH-I or ALDH-II = assay: Survey of structurally related compounds for ALDH inhibition; format: biochemical, human
Procedure: as §5, §6

ALDH-II [3] = biological target: T1, ALDH-II; assay: Competitive inhibition of ALDH-II with acetaldehyde as substrate; format: biochemical; design: A liver sample (50 g wet weight) with the usual Caucasian ALDH phenotype (both ALDH-I and ALDH-II present); from tissue; host or cells: human liver (autopsy), purified by CM-52, AMP-agarose and DEAE HPLC; conditions: acetaldehyde as substrate, competitive; read-out: Ki, ALDH-II
golden hamsters = assay: Dose effect on free choice ethanol intake in golden hamsters, i.p.; format: in vivo, golden hamster; conditions: 10 mg/day, i.p.
Excerpt: It is common practice in quantitative drug studies with rodents to use intraperitoneal (i.p.) administration to deliver drug doses accurately (Goodman and Gilman, 1975, The Pharmacological Basis of Therapeutics, 5th ed., Macmillan, N.Y., p. 8). In particular, this method avoids variability introduced by technical difficulties of oral administration via feeding (full versus empty stomach, etc.), variations in drug transport in the gastrointestinal tract (variations in intestinal fauna and flora, individual variations in absorption rate expected of outbred animals, etc.) and other factors. […] As a control 1 ml of sterile saline was injected i.p. daily during the baseline period (typically 7-9 days) that establishes drinking preference without the drug. Saline injection i.p. had no effect on the drinking behavior of golden hamsters. Ethanol was provided as a 20% solution. Hamsters could be used more than once (but were not used more than three times) in a cycle of baseline saline injections followed by drug injections, each cycle with the drug at a different dose.
The response to daidzin treatment was computed as:
% Response=(Vo -Vd)×100/Vo

physchem = conditions: water
ALDH-II [4] = biological target: T1, ALDH-II; assay: Inhibition kinetics of ALDH-II, initial velocity method, formaldehyde as substrate
Procedure: (§7) The inhibition kinetics were studied by the initial velocity method (Dixon and Webb, 1979, Enzymes, 3rd ed., Longman, Great Britain). […] The initial reaction rates were measured in a pH 9.5 assay medium 0.1 11 in glycine-NaOH, 0. […] The enzyme reaction rates were followed by monitoring the production of NADH at 340 nm (ε-6.22 mM^-1 cm^-1) with a Varian Cary 219 spectrophotometer thermostated at 25° C. The kinetic data were analyzed by standard graphical methods.

ALDH-I [5] = biological target: T2, ALDH-I; assay: Reversibility of ALDH-I inhibition (preincubation, then dilution); format: biochemical; design: A liver sample (50 g wet weight) with the usual Caucasian ALDH phenotype (both ALDH-I and ALDH-II present); from tissue; host or cells: human liver (autopsy), purified by CM-52, AMP-agarose and DEAE HPLC
ALDH-I [6] = biological target: T2, ALDH-I; assay: Inhibition kinetics of ALDH-I, initial velocity method, formaldehyde as substrate; conditions: for potency as ALDH-I inhibitor, fold less than that of daidzin / relative potency as ALDH-I inhibitor, in words: compared with daidzin
Procedure: The kinetic data were analyzed by standard graphical methods.

[7] = substrate: C=O; assay: purified protein, by the assay type; conditions: pH 9.5; 25.0 °C
Procedure: as §7

[8] = 200 μM acetaldehyde, 1 mM NAD+, pH 9.5, 25° C., read-out: IC50, ALDH-II
[9] = 5 μM acetaldehyde, 1 mM NAD+, pH 9.5, 25° C., read-out: IC50, ALDH-I

Q: Which IC50 (ALDH-II [1]; [8]) does the source give for Cc1ccc2c(c1)OC(=O)CC2c1ccccc1 (stereo not shown) [7-Methyl-4-phenyl-3,4-dihydrocoumarin] here?
A: The IC50 was 500 nM.

Q: With COc1ccc(-c2coc3cc(O[C@@H]4O[C@H](CO)[C@@H](O)[C@H](O)[C@H]4O)ccc3c2=O)cc1 [Ononin] as the molecule, how does the IC50 (ALDH-II [1]; [8]) read?
A: The IC50 was 20000 nM.

Q: For CC1=C(c2ccccc2)C(=O)OC2CC(Cl)CCC12 (stereo not shown) [7-Chloro-4A,5,6,7,8,8A-hexahydro-4-methyl-3-phenylcoumarin], which IC50 (ALDH-II [1]; [8]) is on record?
A: The IC50 was 1000 nM.

Q: What about the IC50 (ALDH-I [2]; [9]) of the same molecule?
A: Its IC50 is 1000 nM.

Q: For CC(=O)Oc1ccc2c(=O)c(Cc3ccccc3)c(C)oc2c1OC(C)=O [3-Benzyl-7,8-diacetoxy-2-methylchromone], which IC50 (ALDH-II [1]; [8]) is on record?
A: The IC50 was 3000 nM.

Q: And the IC50 (ALDH-I [2]; [9])?
A: Its IC50 is 10000 nM.

Q: With CN1CC(=O)NC1=O [1-methylhydantoin] as the molecule, how does the “ALDH inhibition” value (ALDH-I or ALDH-II) read?
A: Its value is “not inhibitory”.

Q: Which Ki (ALDH-II [3]) does the source give for O=C(O)CCCCCOc1ccc2c(=O)c(-c3ccc(O)cc3)coc2c1 [Daidzein 7-(ω-carboxypentyl) ether, daidzein 7-(ω-carboxypentyl) ether] here?
A: Its Ki is 450 nM.

Q: And the “suppression of alcohol intake, hamster C14” value (golden hamsters; trained hamster C14)?
A: The value was 56%.

Q: What about the “suppression of alcohol intake, hamster D6” value (golden hamsters; trained hamster D6) of the same molecule?
A: Its value is 72%.

Q: What about the solubility (physchem) of the same molecule?
A: The solubility was 26 mM (≈ 9580 µg/mL).

Q: What does the source list for O=c1c(-c2ccccc2)c(-c2ccccc2)oc2cc(O)ccc12 [3-Phenyl-7-hydroxyflavone]?
A: IC50 (ALDH-II [1]; [8]): 2000 nM; IC50 (ALDH-I [2]; [9]): 10000 nM

Q: With O=C(O)CCCCCCCCCCOc1ccc2c(=O)c(-c3ccc(O)cc3)coc2c1 [Daidzein 7-(ω-carboxydecyl) ether, daidzein 7-(ω-carboxydecyl)ether] as the molecule, how does the Ki (ALDH-II [3]) read?
A: Its Ki is 185 nM.

Q: And the solubility (physchem)?
A: The solubility was 9 mM (≈ 3950 µg/mL).

Q: For O=c1cc(-c2ccccc2)oc2ccccc12 [Flavone], which IC50 (ALDH-II [1]; [8]) is on record?
A: The IC50 was 5000 nM.

Q: What about the IC50 (ALDH-I [2]; [9]) of the same molecule?
A: The IC50 was 10000 nM.

Q: What does the source list for COc1ccc(-c2cc(=O)c3c(O)cc(O)cc3o2)cc1 [Acacetin]?
A: IC50 (ALDH-II [1]; [8]): 5000 nM; IC50 (ALDH-I [2]; [9]): 5000 nM

Q: Which “ALDH inhibition” value (ALDH-I or ALDH-II) does the source give for c1ccc(-c2ccc3ccccc3n2)cc1 [2-phenylquinoline] here?
A: The value was “did not inhibit”.

Q: Which IC50 (ALDH-II [1]; [8]) does the source give for O=c1cc(-c2ccccc2)c2ccc(O)cc2o1 [7-Hydroxy-4-phenylcoumarin] here?
A: Its IC50 is 300 nM.

Q: Which “ALDH inhibition” value (ALDH-I or ALDH-II) does the source give for NC(=O)NC1NC(=O)NC1=O (stereo not shown) [allantoin] here?
A: The value was “not inhibitory”.

Q: Which Ki (ALDH-II [4]) does the source give for O=c1c(-c2ccc(O)cc2)coc2cc(O[C@@H]3O[C@H](CO)[C@@H](O)[C@H](O)[C@H]3O)cc(O)c12 [Genistin] here?
A: Its Ki is > 20000 nM.

Q: And the IC50 (ALDH-II [1])?
A: Its IC50 is > 20000 nM.

Q: And the “reversibility of ALDH-I inhibition” value (ALDH-I [5])?
A: Its value is “reversible selective inhibitor of ALDH-I”.

Q: What about the Ki (ALDH-I [6]) of the same molecule?
A: Its Ki is 360 nM.

Q: And the “selectivity of ALDH inhibition” value (ALDH-I [6])?
A: Its value is “selectively inhibited ALDH-I”.

Q: And the “potency as ALDH-I inhibitor, fold less than that of daidzin” value (ALDH-I [6])?
A: The value was “approximately 10 fold”.

Q: And the “relative potency as ALDH-I inhibitor, in words” value (ALDH-I [6])?
A: The value was “nearly an order of magnitude less potent as an inhibitor than daidzin”.

Q: What about the IC50 (ALDH-I [2]; [9]) of the same molecule?
A: The IC50 was 2000 nM.

Q: What does the source list for COc1cc(O)c2c(=O)c(-c3ccc(O)cc3)coc2c1 [Prunetin]?
A: Ki (ALDH-II [4]): 12000 nM; IC50 (ALDH-II [1]): 12000 nM; Ki (ALDH-I [6]): 300 nM; selectivity of ALDH inhibition (ALDH-I [6]): selectively inhibited ALDH-I; potency as ALDH-I inhibitor, fold less than that of daidzin (ALDH-I [6]): approximately 10 fold; relative potency as ALDH-I inhibitor, in words (ALDH-I [6]): nearly an order of magnitude less potent as an inhibitor than daidzin; IC50 (ALDH-I [2]): 1000 nM

Q: For CC(C)c1ccc(-c2coc3ccccc3c2=O)cc1 [4'-Isopropylisoflavone], which IC50 (ALDH-II [1]; [8]) is on record?
A: Its IC50 is 1500 nM.

Q: What about the IC50 (ALDH-I [2]; [9]) of the same molecule?
A: The IC50 was 5000 nM.

B1: human ALDH-I (Homo sapiens) (protein)
chain: SAAATQAVPAPNQQPEVFCNQIFINNEWHDAVSRKTFPTVNPSTGEVICQVAEGDKEDVDKAVKAARAAFQLGSPWRRMDASHRGRLLNRLADLIERDRTYLAALETLDNGKPYVISYLVDLDMVLKCLRYYAGWADKYHGKTIPIDGDFFSYTRHEPVGVCGQIIPWNFPLLMQAWKLGPALATGNVVVMKVAEQTPLTALYVANLIKEAGFPPGVVNIVPGFGPTAGAAIASHEDVDKVAFTGSTEIGRVIQVAAGSSNLKRVTLELGGKSPNIIMSDADMDWAVEQAHFALFFNQGQCCCAGSRTFVQEDIYDEFVERSVARAKSRVVGNPFDSKTEQGPQVDETQFKKILGYINTGKQEGAKLLCGGGIAADRGYFIQPTVFGDVQDGMTIAKEEIFGPVMQILKFKTIEEVVGRANNSTYGLAAAVFTKDLDKANYLSQALQAGTVWVNCYDVFGAQSPFGGYKMSGSGRELGEYGLQAYTEVKTVTVKVPQKNS
Q: For B1, which Km [7] is on record?
A: The Km was 0.8 mM.
